In US20250129095A1, “ANNULATED 2-AMINO-3-CYANO THIOPHENES AND DERIVATIVES FOR THE TREATMENT OF CANCER” (Boehringer Ingelheim Int'l GmbH Corp., priority 2021, published 2025):
Converted amounts (≈) assume the structure as drawn. Like-named read-outs stand apart in the source and are kept apart here.

How the values were obtained:
SK-CO-1 cells = assay: SK-CO-1 CTG proliferation assay (120 h) (CRC, G12V); assay type: cell-based; settings: Homo sapiens
Method: SK-CO-1 cells (ATCC HTB-39) are dispensed into 384-well plates, flat and clear bottom (Greiner, PNr. 781091) at a density of 500 cells per well in 60 μL EMEM (Sigma M5650)+10% Fetal Calf Serum (HyClone, PNr.: SH30084.03) and incubated at 37° C. in a CO2 incubator overnight. The next day, compounds (10 mM stock in DMSO) are added with the ECHO acoustic liquid handler system (Beckman Coulter), including DMSO controls. Plates are incubated for 120 h, and cell viability is measured using CellTiter-Glo luminescent cell viability reagent (Promega product code G7570). Viability (stated as percent of control) is defined as relative luminescence units RLU of each well divided by the RLU of cells in DMSO controls.

KRAS G12V Ba/F3 = KRAS G12V Ba/F3 (Homo sapiens, UniProt P01116, G12V, cells depend on it); assay: Ba/F3 proliferation assay, KRAS G12V; assay type: cell-based; settings: 72 h, AlamarBlue, read-out: KRAS G12V Ba/F3 IC50
Sequence of KRAS G12V Ba/F3 (P01116 whole entry G12V, canonical isoform): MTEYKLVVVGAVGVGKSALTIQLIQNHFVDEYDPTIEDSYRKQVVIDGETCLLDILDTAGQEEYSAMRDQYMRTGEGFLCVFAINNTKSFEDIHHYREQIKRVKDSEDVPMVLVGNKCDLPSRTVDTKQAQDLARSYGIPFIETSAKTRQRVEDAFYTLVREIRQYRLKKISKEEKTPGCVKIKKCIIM
Method: (§1) Plasmids containing KRASG12 mutants(i.e. G12D, G12C, G12V) are obtained from GeneScript. To generate KRASG12-dependent Ba/F3 models, Ba/F3 cells are transduced with retroviruses containing vectors that harbor KRASG12 isoforms. Platinum-E cells (Cell Biolabs) are used for retrovirus packaging. Retrovirus is added to Ba/F3 cells. To ensure infection, 4 μg/mL polybrene is added and cells are spinfected. […] Cells with an infection efficiency of 10% to 20% are further cultivated and puromycin selection with 1 μg/mL is initiated. As a control, parental Ba/F3 cells are used to show selection status. Selection is considered successful when parental Ba/F3 cells cultures died. To evaluate the transforming potential of KRASG12 mutations, the growth medium is no longer supplemented with IL-3. Ba/F3 cells harboring the empty vector are used as a control. Approximately ten days before conducting the experiments, puromycin is left out.
(§2) Compounds are added using an Access Labcyte Workstation with a Labcyte Echo 550 or 555 accoustic dispenser. All treatments are performed in technical duplicates. […] AlamarBlue™ (ThermoFisher), a viability stain, is added and fluorescence measured in the PerkinElmer Envision HTS Multilabel Reader. The raw data are imported into and analyzed with the Boehringer Ingelheim proprietary software MegaLab (curve fitting based on the program PRISM, GraphPad Inc.).

AsPC-1 cells = assay: AsPC-1 CTG proliferation assay (120 h) (pancreatic cancer, G12D); assay type: cell-based; settings: Homo sapiens, ASPC1
Method: The CTG assay is designed to measure quantitatively the proliferation of AsPC-1 cells (ATCC CRL-5985), using the CellTiter Glow Assay Kit (Promega G7571). Cells are grown in RPMI medium (ATCC) supplemented with Fetal Calf Serum (Life Technologies, Gibco BRL, Cat. No. 10270-106). On “day 0” 2000 AsPC-1 cells are seeded in 60 μL RPMI ATCC+10% FCS+ Penstrep in a 384-well plate, flat and clear bottom (Greiner, PNr. 781091). Cells are then incubated in the plates at 37° C. in a CO2 incubator overnight. On day 1, compounds (10 mM stock in DMSO) are added with the ECHO acoustic liquid handler system (Beckman Coulter), including DMSO controls. Plates are incubated for 120 h, and cell viability is measured using CellTiter-Glo luminescent cell viability reagent (Promega product code G7570). Viability (stated as percent of control) is defined as relative luminescence units RLU of each well divided by the RLU of cells in DMSO controls.

[1] = Metabolic (microsomal) stability assay, human liver microsomes (HLM); assay type: in vitro ADME; settings: 1 μM, predicted clearance as percent of liver blood flow
Method: The metabolic degradation of the test compound is assayed at 37° C. with pooled liver microsomes (mouse (MLM), rat (RLM) or human (HLM)). The final incubation volume of 48 μL per time point contains TRIS buffer (pH 7.5; 0.1 M), magnesium chloride (6.5 mM), microsomal protein (0.5 mg/mL for mouse/rat, 1 mg/mL for human specimens) and the test compound at a final concentration of 1 μM. Following a short preincubation period at 37° C., the reactions are initiated by addition of 12 μL beta-nicotinamide adenine dinucleotide phosphate, reduced form (NADPH, 10 mM) and terminated by transferring an aliquot into solvent after different time points (0, 5, 15, 30, 60 min). Additionally, the NADPH-independent degradation is monitored in incubations without NADPH, terminated at the last time point by addition of acetonitrile. The quenched incubations are pelleted by centrifugation (4,000 rpm, 15 min). An aliquot of the supernatant is assayed by LC-MS/MS to quantify the concentration of parent compound in the individual samples.
In vitro intrinsic clearance (CLint, in vitro) is calculated from the time course of the disappearance of the test drug during the microsomal incubation. Each plot is fitted to the first-order elimination rate constant as C(t)=C0*exp(−ke*t), where C(t) and C0 are the concentration of unchanged test drug at incubation time t and that at preincubation and ke is the disappearance rate constant of the unchanged drug. Subsequently, CLint, in vitro (μL min^−1·amount protein) values are converted to predicted CLint, in vitro (mL min^−1·kg^−1) from incubation parameters according to the equation CLint, in vitro=CLint, in vitro×(incubation volume (ml)/amount protein (mg))×(amount protein (mg)/g liver tissue)×(liver weight/body wt.). For better across species comparison the predicted clearance is expressed as percent of the liver blood flow [% QH](mL min^−1·kg^−1) in the individual species. In general, high stability (corresponding to low % QH) of the compounds across species is desired.

KRAS G12D Ba/F3 = KRAS G12D Ba/F3 (Homo sapiens, UniProt P01116, G12D, cells depend on it); assay: Ba/F3 proliferation assay, KRAS G12D; assay type: cell-based; settings: 72 h, AlamarBlue, read-out: KRAS G12D Ba/F3 IC50
Sequence of KRAS G12D Ba/F3 (P01116 whole entry G12D): as the sequence (P01116 whole entry G12V, canonical isoform) above, with V12D counted along it
Method: as §1, §2

[2] = Solubility measurement (DMSO solution precipitation method); assay type: physicochemical; settings: aqueous buffer, kinetic from dmso stock
Method: The DMSO solution is diluted with an aqueous medium (McIlvaine buffer with pH=4.5 or 6.8) to a final concentration of 250 μM. After 24 h of shaking at ambient temperature a potentially formed precipitate is removed by filtration. The concentration of the test compound in the filtrate is determined by LC-UV methods by calibrating the signal to the signal of a reference solution with complete dissolution of the test compound in acetonitrile/water (1:1) with known concentration.

[3] = McIlvaine buffer pH 4.5, 24 h, read-out: Solubility [μg/ml] pH 4.5
[4] = McIlvaine buffer pH 6.8, 24 h, read-out: Solubility [μg/ml] pH 6.8

| SMILES | IC50 (SK-CO-1 cells) [nM] | GI50 (KRAS G12V Ba/F3) [nM] | IC50 (AsPC-1 cells) [nM] | HLM QH [%] [1] [%] | GI50 (KRAS G12D Ba/F3) [nM] | solubility at 24 h [2, 3] [µg/mL] | solubility at 24 h [2, 4] [µg/mL] |
| --- | --- | --- | --- | --- | --- | --- | --- |
| C[C@H](Oc1cc(O[C@H]2CNC(C)(C)C2)nc(-c2noc3c2CCC[C@@]32CCCc3sc(N)c(C#N)c32)n1)[C@@H]1CCCN1C (single isomer, unassigned) [II-8] | 774 | 869 | 1720 | <24 | 388 | > 145 | > 146 |
| C[C@H](Oc1cc(Oc2nccs2)nc(-c2onc3c2CCC[C@@]32CCCc3sc(N)c(C#N)c32)n1)[C@@H]1CCCN1C [Example I-1] | 24 | 3 | 2500 | 44 | 11 | 95 (≈ 161 µM) | < 1 |
| C[C@H](Oc1cc(Oc2cccnc2)nc(-c2onc3c2CCC[C@@]32CCCc3sc(N)c(C#N)c32)n1)[C@@H]1CCCN1C [Example I-2] | 23 | 2 | 1310 | 70 | 6 | > 125 | 89 (≈ 152 µM) |
| C[C@H](Oc1cc(Oc2cncnc2)nc(-c2onc3c2CCC[C@@]32CCCc3sc(N)c(C#N)c32)n1)[C@@H]1CCCN1C [Example I-3] | 29 | 2 | 682 | 69 | 5 | > 128 | > 121 |
| C[C@H](Oc1cc(N[C@H]2CCOC2)nc(-c2onc3c2CCC[C@@]32CCCc3sc(N)c(C#N)c32)n1)[C@@H]1CCCN1C [Example I-4] | 762 | 46 | 9470 | 26 | 41 | > 135 | 107 (≈ 186 µM) |
| COC[C@H](C)Nc1cc(O[C@@H](C)[C@@H]2CCCN2C)nc(-c2onc3c2CCC[C@@]32CCCc3sc(N)c(C#N)c32)n1 [Example I-5] |  | 67 |  | <24 | 122 | 111 (≈ 192 µM) | 109 (≈ 189 µM) |
| C[C@H](Oc1cc(Nc2ccccn2)nc(-c2onc3c2CCC[C@@]32CCCc3sc(N)c(C#N)c32)n1)[C@@H]1CCCN1C [Example I-6] | 273 | 14 | 3360 | <24 | 47 | 23 (≈ 39.5 µM) | 2 (≈ 3.43 µM) |
| C[C@H](Oc1cc(Sc2ncccn2)nc(-c2onc3c2CCC[C@@]32CCCc3sc(N)c(C#N)c32)n1)[C@@H]1CCCN1C [Example I-7] | 796 | 31 | 10300 | 38 | 97 | > 146 | 70 (≈ 117 µM) |
| C[C@H](Oc1cc(O[C@@H]2CNC2(C)C)nc(-c2noc3c2CCC[C@@]32CCCc3sc(N)c(C#N)c32)n1)[C@@H]1CCCN1C [II-9] | 171 | 161 | 49 | <24 | 5 |  |  |
| C[C@H](Oc1cc(NCC2COC2)nc(-c2noc3c2CCC[C@@]32CCCc3sc(N)c(C#N)c32)n1)[C@@H]1CCCN1C [II-11] | 46 | 29 | 2270 | 36 | 28 |  |  |
| C[C@H](Oc1cc(Nc2ccncn2)nc(-c2noc3c2CCC[C@@]32CCCc3sc(N)c(C#N)c32)n1)[C@@H]1CCCN1C [II-15] | 91 | 12 | 3550 | <24 | 59 |  |  |
| C[C@H](Oc1cc(Nc2ccccn2)nc(-c2noc3c2CCC[C@@]32CCCc3sc(N)c(C#N)c32)n1)[C@@H]1CCCN1C [II-16] |  | 11 |  | 42 | 43 | 41 (≈ 70.4 µM) | < 1 |
| C[C@H](Oc1cc(Nc2cccnn2)nc(-c2noc3c2CCC[C@@]32CCCc3sc(N)c(C#N)c32)n1)[C@@H]1CCCN1C [II-18] | 133 | 11 | 3010 | 41 | 46 |  |  |
| C[C@H](Oc1cc(O[C@@H]2CNC[C@@H]2F)nc(-c2noc3c2CCC[C@@]32CCCc3sc(N)c(C#N)c32)n1)[C@@H]1CCCN1C [II-29] | 139 | 65 | 430 | 28 | 22 |  |  |
